# Reference: patent US5258385A, “β-Carboline-derived compounds, lamchart benzodiazepine-receptor ligands, having an inverse agonist and antagonist effect on benzodiazepines, and drugs containing them” (Centre National de la Recherche Scientifique (CNRS), priority 1991, dated 1993)
# Columns and labels:
# [1] = test system: benzodiazepine receptor; test: In vitro binding to benzodiazepine receptor, displacement of 3H-flunitrazepam, rat brain cortical membranes
# [2] = test system: benzodiazepine receptor; test: In vivo behavior and antagonism of diazepam sedation in mice; details: sc
# Procedure: The antagonist properties of the lactone were also assessed in vivo in mice.
# [3] = test system: benzodiazepine receptor; test: Effect on current in xenopus oocyte expressing the benzodiazepine receptor (mRNA); type: cell-based
# Text: The effect of the lactone on the benzodiazepine receptor expressed was first expressed, using the corresponding messenger RNA, in xenopus oocyte.
# [4] = anxiolytic, anti-convulsant and the like; cited from earlier work
# [5] = test system: learning and information retention; details: man; cited from earlier work
# [6] = test system: convulsions caused by other agents such as pentylenetetrazole; details: cited from earlier work
# [7] = target: central receptors for benzodiazepines; details: in vitro, rat brain; read-out: IC50 binding to central receptors for benzodiazepines; cited from earlier work
# [8] = test system: learning and memory; details: cited from earlier work
compound,measurement,setting,value
"O=C1OC(CO)c2c1ncc1[nH]c3ccccc3c21 (stereo not drawn) [Compound No. 3, 10-Hydroxymethylbutanolide[2.3-]-β-Carboline]",affinity relative to diazepam (20 nM),[1]; times higher than diazepam,100 times
same,affinity relative to β-CCE (4 nM),[1]; times higher than β-CCE,20 times
same,convulsant or sedative effect in mice,[2]; 5 mg/kg,neither convulsant nor sedative
same,effect on behavior of mice,[2]; 5 mg/kg,produces no effect on their behavior
same,antagonism of sedation caused by diazepam,"[2]; compound 5 or 10 mg/kg, diazepam 7.5 mg/kg",completely avoided
same,effect on GABA-generated current in oocyte,[3]; lactone (10^6 M [sic]) simultaneously with 10^5 M (so in the source) GABA,no increase or decrease was observed in the current
same,inhibition of the increase in current generated by diazepam,"[3]; lactone (10^6 M [sic]), diazepam (10^6 M [sic])",inhibits substantially the increase in the current
same,receptor profile in oocyte test,[3]; with GABA,"behaves, in this test, like an antagonist of the benzodiazepine receptor"
CCOC(=O)c1ncc2[nH]c3cccc(OCc4ccccc4)c3c2c1COC [ZK 91296],properties in vivo compared with diazepam,[4],properties similar to those of diazepam in vivo
CCOC(=O)c1ncc2[nH]c3ccc(OCc4ccccc4)cc3c2c1COC [ZK 93423],properties in vivo compared with diazepam,[4],properties similar to those of diazepam in vivo
CCOC(=O)c1ncc2[nH]c3cccc(OC(C)C)c3c2c1C [ZK 93426],learning and information retention,[5],improve learning and information retention in man
"CCOC(=O)c1cc2c(cn1)[nH]c1ccccc12 [β-CCE, ethyl ester of β-carboline-3-carboxylic acid]",in vivo pharmacological effects compared with benzodiazepines,[6]; in vivo,opposed to those of benzodiazepines
same,proconvulsant effect,[6]; mice,proconvulsant in mice which facilitates the convulsions caused by other agents such as pentylenetetrazole
same,IC50,[7],4 nM
COC(=O)c1cc2c(cn1)[nH]c1ccccc12 [β-CCM],effect on learning and memory,[8]; in vivo,positive effect on learning and memory
same,convulsant activity,[8]; prevented testing in man,highly convulsant activity
